{"source": "patent EP0187057A1", "about": "“2-Phenyl-isopropyl-allophanate, preparation and pharmaceutical application” (priority 1984, dated 1986)", "key": {"[1]": {"assay": "Weights test (muscular strength)", "assay_type": "in vivo, souris", "details": "mouse, in vivo, po; dose diminishing initial performance by 50 %; read-out: DA50 force musculaire", "from_the_text": "(§1) On a donc étudié les effets dépresseurs que peuvent exercer des doses croissantes de SCS 289 sur : • - la motricité spontanée de la souris; • - sa curiosité, quantifiée par la méthode de la planche à trous; • - son agilité, évaluée par l'épreuve de la traction de Boissier et Simon; • - sa force musculaire, mesurée par l'épreuve des poids.\n(§2) Les essais ont été pratiqués sur des groupes de 10 souris dont les performances motrices ont été mesurées à deux reprises : avant et une heure après traitement par le SCS 289 administré, par voie digestive à des doses allant de 10 à 200 mg/kg, actives vis-à-vis des convulsions pentétrazoliques et des crises psychomotrices. A noter que l'épreuve de la planche à trous utilisée pour chiffrer la curiosité des animaux (décompte du nombre de visites des trous) n'est pratiquée qu'une seule fois, le comportement explorateur des animaux traités étant alors comparé à celui des témoins.\n(§3) Les résultats obtenus dans chaque groupe ont permis de calculer la DA50 capable de diminuer de 50 X les performances motrices initiales ou de diminuer de 50% la curiosité des souris traitées par rapport à celle des témoins.\n(§4) Les expérimentations comportementales précédemment décrites ont été appliquées à des animaux recevant SCS 35 et SCS 289 aux doses de 10 et 25 mg/kg."}, "[2]": {"system": "force musculaire de la souris", "assay": "Weights test (muscular strength)", "assay_type": "in vivo", "from_the_text": "as §1, §2, §3, §4"}, "[3]": {"assay": "Acute toxicity by the digestive route, lethality after one week of observation", "assay_type": "in vivo, souris", "details": "mouse, in vivo, po; for mortality at 168 h: read-out: Pourcentage de létalité Souris", "protocol": "(§5) Des doses croissantes de produit (SCS 289) ont été administrées, par voie digestive, sous forme de suspensions gommeuses, sous le volume de 0,50 ml/20 g de poids corporel chez la souris et 0,50 ml/100 g de poids corporel chez le rat (de 500 à 4000 mg/kg avec des intervalles de 500 mg/kg).\n(§6) Les animaux ont été maintenus en observation pendant une semaine, tout d'abord dans le laboratoire (avec un chauffage d'appoint) jusqu'au réveil des animaux endormis, puis dans l'unité animale conditionnée et climatisée.\n(§7) Le taux de mortalité relevé dans chaque lot de rats et de souris au terme de la semaine d'observation a été le suivant :\n(§8) Les valeurs des DL50, calculées par la méthode de Miller et Tainter sont respectivement de : • - 2300 ± 102 m^g/k^g chez la souris; • - 2050 + 220 mg/kg chez le rat."}, "souris": {"system": "souris", "assay": "Acute toxicity by the digestive route, lethality after one week of observation", "assay_type": "in vivo", "details": "souris, voie digestive, méthode de Miller et Tainter; 10080 min", "protocol": "as §5, §6, §7, §8"}, "[4]": {"assay": "Traction test of Boissier and Simon (agility)", "assay_type": "in vivo, souris", "details": "mouse, in vivo, po; dose diminishing initial performance by 50 %; read-out: DA50 agilité", "from_the_text": "as §1, §2, §3, §4"}, "agilité de la souris": {"system": "agilité de la souris", "assay": "Traction test of Boissier and Simon (agility)", "assay_type": "in vivo", "from_the_text": "as §1, §2, §3, §4"}, "curiosité de la souris": {"system": "curiosité de la souris", "assay": "Hole-board test (curiosity, exploratory behaviour)", "assay_type": "in vivo", "from_the_text": "as §1, §2, §3, §4"}, "[5]": {"assay": "Hole-board test (curiosity, exploratory behaviour)", "assay_type": "in vivo, souris", "details": "mouse, in vivo, po", "from_the_text": "as §1, §2, §3, §4"}, "crises psychomotrices": {"system": "crises psychomotrices", "assay": "Psychomotor seizures induced by low-frequency transcranial electrical stimulation", "assay_type": "in vivo, souris", "details": "for Pourcentage de souris protégées une heure après traitement: groupes de 20 souris", "from_the_text": "Propriétés anticonvulsivantes : • On a effectué, pour déterminer ces propriétés anticonvulsivantes, des expérimentations sur le SCS 289 en procédant à des essais de protection : • - chez le lapin soumis à une transélectrification cranienne génératrice de crises épileptiformes de type \"grand mal\" ou recevant une infusion veineuse de pentétrazol provoquant l'apparition de myoclonies palpébrales; • - chez la souris recevant, par voie sous-cutanée des doses croissantes de pentétrazol entraînant convulsions et mort ou soumise à une transélectrification transcranienne à basse fréquence génératrice de crises psychomotrices.\nOn a également recherché si le SCS 289 était susceptible de protéger la souris contre le choc psychomoteur induit par une stimulation transcranienne à basse fréquence qui provoque, chez l'animal, un bref comportement de désorientation rappelant les attaques psychomotrices de l'homme.\nVis-à-vis des crises psychomotrices provoquées chez la souris par une stimulation électrique transcranienne à basse fréquence, le SCS 35 apparait plus actif que le SCS 289 : […]"}, "[6]": {"details": "10 mg/kg voie digestive, one hour after treatment"}}, "note": "Values joined by “and” are separate entries in the source; they are usually repeats but may differ in a detail not shown here. Identical values can stand only once. Like-named read-outs stand apart in the source and are kept apart here."}
{"smiles": "CC(C)OC(=O)N(C(N)=O)c1ccccc1", "note": "[SCS 289, phényl-2 allophanate d'isopropyle]", "values": [{"measurement": "ED50 at 1 h", "setting": "[1]", "result": 63, "unit": "mg/kg"}, {"measurement": "Propriétés déficitaires motrices sur la force musculaire (pourcentage de diminution des scores)", "setting": "[2]; [6]", "result": "3,8%"}, {"measurement": "Propriétés déficitaires motrices sur la force musculaire (pourcentage de diminution des scores)", "setting": "[2]; 25 mg/kg", "result": "8,3%"}, {"measurement": "Propriétés déficitaires motrices sur la force musculaire (pourcentage de diminution des scores)", "setting": "[2]; 50 mg/kg", "result": 33, "unit": "%"}, {"measurement": "Propriétés déficitaires motrices sur la force musculaire (pourcentage de diminution des scores)", "setting": "[2]; 75 mg/kg", "result": "31,9%"}, {"measurement": "Propriétés déficitaires motrices sur la force musculaire (pourcentage de diminution des scores)", "setting": "[2]; 100 mg/kg", "result": "80,4%"}, {"measurement": "Propriétés déficitaires motrices sur la force musculaire (pourcentage de diminution des scores)", "setting": "[2]; 150 mg/kg", "result": 100, "unit": "%"}, {"measurement": "Propriétés déficitaires motrices sur la force musculaire (pourcentage de diminution des scores)", "setting": "[2]; 200 mg/kg", "result": 100, "unit": "%"}, {"measurement": "mortality at 168 h", "setting": "[3]; 500 mg/kg voie digestive", "result": 0, "unit": "%"}, {"measurement": "mortality at 168 h", "setting": "[3]; 1000 mg/kg voie digestive", "result": 0, "unit": "%"}, {"measurement": "mortality at 168 h", "setting": "[3]; 1500 mg/kg voie digestive", "result": 0, "unit": "%"}, {"measurement": "mortality at 168 h", "setting": "[3]; 2000 mg/kg voie digestive", "result": 20, "unit": "%"}, {"measurement": "mortality at 168 h", "setting": "[3]; 2500 mg/kg voie digestive", "result": 40, "unit": "%"}, {"measurement": "mortality at 168 h", "setting": "[3]; 3000 mg/kg voie digestive", "result": 100, "unit": "%"}, {"measurement": "mortality at 168 h", "setting": "[3]; 3500 mg/kg voie digestive", "result": 100, "unit": "%"}, {"measurement": "mortality at 168 h", "setting": "[3]; 4000 mg/kg voie digestive", "result": 100, "unit": "%"}, {"measurement": "LD50 at 168 h", "setting": "[3]; souris, voie digestive, méthode de Miller et Tainter, read-out: DL50", "result": "2300 ± 102", "unit": "mg/kg"}, {"measurement": "DL50", "setting": "souris", "result": "2300 + 102 mg/kg"}, {"measurement": "ED50 at 1 h", "setting": "[4]", "result": 42, "unit": "mg/kg"}, {"measurement": "Propriétés déficitaires motrices sur l'agilité (pourcentage de diminution des scores)", "setting": "agilité de la souris; [6]", "result": "6,7%"}, {"measurement": "Propriétés déficitaires motrices sur l'agilité (pourcentage de diminution des scores)", "setting": "agilité de la souris; 25 mg/kg", "result": 20, "unit": "%"}, {"measurement": "Propriétés déficitaires motrices sur l'agilité (pourcentage de diminution des scores)", "setting": "agilité de la souris; 50 mg/kg", "result": "41,7%"}, {"measurement": "Propriétés déficitaires motrices sur l'agilité (pourcentage de diminution des scores)", "setting": "agilité de la souris; 75 mg/kg", "result": "77,3%"}, {"measurement": "Propriétés déficitaires motrices sur l'agilité (pourcentage de diminution des scores)", "setting": "agilité de la souris; 100 mg/kg", "result": 90, "unit": "%"}, {"measurement": "Propriétés déficitaires motrices sur l'agilité (pourcentage de diminution des scores)", "setting": "agilité de la souris; 150 mg/kg", "result": 100, "unit": "%"}, {"measurement": "Propriétés déficitaires motrices sur l'agilité (pourcentage de diminution des scores)", "setting": "agilité de la souris; 200 mg/kg", "result": 100, "unit": "%"}, {"measurement": "Nb de visites des trous Traités", "setting": "curiosité de la souris; 10 mg/kg, par souris pendant cinq minutes, témoins 26,5", "result": 27}, {"measurement": "Nb de visites des trous Traités", "setting": "curiosité de la souris; 25 mg/kg, témoins 26,4", "result": "27,4"}, {"measurement": "Nb de visites des trous Traités", "setting": "curiosité de la souris; 50 mg/kg, témoins 24,2", "result": "23,6"}, {"measurement": "Nb de visites des trous Traités", "setting": "curiosité de la souris; 75 mg/kg, témoins 27", "result": "21,4"}, {"measurement": "Nb de visites des trous Traités", "setting": "curiosité de la souris; 100 mg/kg, témoins 25,4", "result": "8,6"}, {"measurement": "Nb de visites des trous Traités", "setting": "curiosité de la souris; 150 mg/kg, témoins 24,2", "result": 0}, {"measurement": "Nb de visites des trous Traités", "setting": "curiosité de la souris; 200 mg/kg, témoins 24,2", "result": 0}, {"measurement": "DA50 capable de diminuer de 50 % la curiosité de la souris", "setting": "curiosité de la souris; méthode de Miller et Tainter, 60 min", "result": "82,5 ± 7,6 mg/kg and ~82 mg/kg"}, {"measurement": "ED50 at 1 h", "setting": "[5]; méthode de Miller et Tainter, read-out: DA50 capable de diminuer de 50 % la curiosité de la souris", "result": 82.5, "unit": "mg/kg"}, {"measurement": "selectivity ratio", "setting": "[5]; souris, read-out: DA50 curiosité par rapport aux doses anticonvulsivantes (pentétrazol / crises psychomotrices)", "result": "15 to 18"}, {"measurement": "Pourcentage de souris protégées une heure après traitement", "setting": "crises psychomotrices; 5 mg/kg voie digestive", "result": 45, "unit": "%"}, {"measurement": "Pourcentage de souris protégées une heure après traitement", "setting": "crises psychomotrices; 10 mg/kg voie digestive", "result": 50, "unit": "%"}, {"measurement": "Pourcentage de souris protégées une heure après traitement", "setting": "crises psychomotrices; 25 mg/kg voie digestive", "result": 95, "unit": "%"}, {"measurement": "Pourcentage de souris protégées une heure après traitement", "setting": "crises psychomotrices; 50 mg/kg voie digestive", "result": 100, "unit": "%"}, {"measurement": "Pourcentage de souris protégées une heure après traitement", "setting": "crises psychomotrices; 2,5 mg/kg voie digestive", "result": 35, "unit": "%"}, {"measurement": "ED50", "setting": "crises psychomotrices; Mus musculus, po, souris, voie digestive, read-out: DE50 capable de protéger 50 % des animaux contre les crises psychomotrices", "result": 4.5, "unit": "mg/kg"}, {"measurement": "activité par rapport au valproate de sodium (comparaison des DE50)", "setting": "crises psychomotrices; crises psychomotrices, souris", "result": 26, "unit": "fois"}, {"measurement": "activité par rapport à la phénacétamide (comparaison des DE50)", "setting": "crises psychomotrices; crises psychomotrices, souris", "result": "trois fois plus actif"}, {"measurement": "DL50/DE50 / Crises psycho-motrices", "setting": "crises psychomotrices; index thérapeutique absolu, souris", "result": 511}, {"measurement": "DE50 psychodépressive / DE50 anticonvulsivante / Crises psycho-motrices", "setting": "crises psychomotrices; index thérapeutique relatif, psychodépressive = mean of DE50 for agilité, force musculaire, motricité, curiosité", "result": 16}, {"measurement": "DE50 capable de protéger 50 % des animaux contre les crises psychomotrices", "setting": "crises psychomotrices; souris, voie digestive", "result": "4,5 mg/kg and ~5,5 mg/kg"}]}
